How the values were obtained:
U937 cells = assay: Inhibition of TNF-α-induced programmed necrosis of U937 cells (CellTiter-Glo); assay type: cell-based; details: U-937, human TNF-α + Q-VD-Oph, 48 hours
Procedure: The U937 cell line used in the following test examples was from ATCC, number: CRL-1593.2, batch number: 63479999, culture medium: RPMI-1640+10% FBS.
(§1) The reagents used, suppliers and product numbers of the reagents were as follows: RPMI-1640, Gibco, 11875-093; FBS, Gibco, 10099-141; Trypsin-EDTA, Gibco, 25200-072; PS, Gibco, 15140-122; CellTiter Glo , Progema, G7573; DMSO, VWR AMRESCO, 0231-500ML; TNF-α protein (human, recombinant), Peprotech, 300-01A; Q-VD-Oph, MCE, HY-12305; V-shaped bottom plate, Corning, 3894; 384-well low-flange white flat-bottom microplate, Corning, 3570; RIPK1, Eurofins, 16-022; MOPS, BDH, 441644J; EDTA, Sigma, E5134; Myelin basic protein, Sigma, M1891-25.00 MG; Magnesium acetate, Merck, DU008026; ATP (non-radioactive label), Sigma, A-7699; ATP (radioactive label), Hartmann Analytic, DU008054; Phosphoric acid, Metlab, DU003000; Z-VAD: Shanghai Yuang Chemical Industry, YA02401.
The compounds to be tested were dissolved in DMSO and diluted with DMSO into a series of concentration gradients. 5000 U937 cells/well were seeded in a 384-well white plate. Compounds of corresponding concentrations were added to each well and mixed evenly with the cells. At the same time, human TNF-a and Q-VD-Oph were added to induce programmed necrosis of the cells. The cells were placed at 37° C., 5% CO2 incubator for 48 hours. CellTiter-Glo reagent was used for detection, and the chemiluminescence reading was detected using a microplate reader after sufficient lysis reaction. The test results were calculated using the formula SR (%)=(RLU compound−RLU blank)/(RLU high control−RLU blank)×100%. The survival rate and the final concentration of the corresponding compound were drawn into a curve and fitted using four parameters. Inhibitory IC50 on TNF-α-induced cell necrosis of the compounds were calculated.

RIPK1 = RIPK1 (Homo sapiens (Human), UniProt Q13546); assay: Inhibitory activity against RIPK1 enzyme (33P-ATP, MBP substrate); assay type: biochemical; details: 36 nM RIPK1, 0.33 mg/ml MBP, 155 μM ATP, 2 hours, room temperature
RIPK1, sequence (Q13546 whole entry): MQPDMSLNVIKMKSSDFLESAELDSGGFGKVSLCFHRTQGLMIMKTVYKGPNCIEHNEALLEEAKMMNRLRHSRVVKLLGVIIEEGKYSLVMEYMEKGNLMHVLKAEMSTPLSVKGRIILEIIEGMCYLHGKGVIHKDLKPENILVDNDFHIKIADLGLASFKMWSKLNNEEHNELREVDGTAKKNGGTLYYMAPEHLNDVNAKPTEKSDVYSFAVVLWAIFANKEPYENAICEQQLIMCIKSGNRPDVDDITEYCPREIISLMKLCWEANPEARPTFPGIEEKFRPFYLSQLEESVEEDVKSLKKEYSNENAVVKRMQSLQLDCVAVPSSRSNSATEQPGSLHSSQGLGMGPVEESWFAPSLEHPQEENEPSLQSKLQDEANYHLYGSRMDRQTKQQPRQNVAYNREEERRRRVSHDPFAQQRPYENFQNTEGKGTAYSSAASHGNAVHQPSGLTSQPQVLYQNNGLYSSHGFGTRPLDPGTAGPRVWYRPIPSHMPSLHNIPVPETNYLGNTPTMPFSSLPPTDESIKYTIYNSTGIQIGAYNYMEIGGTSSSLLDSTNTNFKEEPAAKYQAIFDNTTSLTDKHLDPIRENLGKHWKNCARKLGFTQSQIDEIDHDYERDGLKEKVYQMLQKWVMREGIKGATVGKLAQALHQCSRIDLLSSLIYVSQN
Procedure: as §1
The compound to be tested was dissolved in DMSO to prepare a 10 mM stock solution, diluted 3.16 times with DMSO into a series of concentration gradients, and then MOPS pH 7.0 buffer solution was used to dilute 50 times to prepare a working solution, and mixed well with 36 nM RIPK1 (final concentration), 0.33 mg/ml substrate MBP. Afterwards, 10 mM magnesium ions and 155 μM phosphorus 33 isotope-labeled ATP were added to react, The final concentration of DMSO was 2%. After the reaction was proceeded at room temperature for 2 hours, phosphoric acid was added to terminate. The final reaction system was processed and detected using a liquid scintillation counter. After the test results are subtracted from the blank control and compared with the reading value of the control group to convert to the activity percentage, which was plotted as a curve with the final concentration of the corresponding compound, and four-parameter fitting was used to obtain the IC50 of the compound that inhibits RIPK1 enzyme activity.

L929 cells = assay: Inhibition of TNF-α-induced programmed necrosis of L929 cells (CellTiter-Glo); assay type: cell-based; details: 30 ng/ml mouse TNF-α + 15 μM Z-VAD, 6 hours
Procedure: The L929 cell line used in the following test examples was from ATCC, number: CCL-1, batch number: 70001022, culture medium: MEM+10% FBS+1% PS.
as §1
The compounds to be tested were dissolved in DMSO to prepare a 10 mM stock solution, and diluted 3.16 times with DMSO into a series of concentration gradients, and then dilute 100 times to prepare a working solution. 10000 L929 cells/well were seeded in a 384-well white plate. Compounds of corresponding concentrations were added to each well and mixed evenly with the cells. At the same time, 30 ng/ml mouse TNF-α and 15 μM Z-VAD were added to induce programmed necrosis of the cells, the final concentration of DMSO was 0.2%. The cells were placed at 37° C., 5% CO2 incubator for 6 hours. CellTiter-Glo reagent was used for detection, and the chemiluminescence reading was detected using a microplate reader after sufficient lysis reaction. The test results were calculated using the formula SR (%)=(RLU compound−RLU blank)/(RLU high control−RLU blank)×100%. The survival rate and the final concentration of the corresponding compound were drawn into a curve and fitted using four parameters. Inhibitory IC50 on TNF-α-induced cell necrosis of the compounds were calculated.

Row | IC50 (RIPK1) [nM] | Compound | IC50 (U937 cells) [nM] | IC50 (L929 cells) [nM]
1 | 89 | C[C@H](C(F)F)N1CCc2c(nn(Cc3c(F)cccc3F)c2Cl)C1=O (single isomer, unassigned) [Compound Z9-2] | 42.8 | 450
2 |  | C[C@@H](C(F)F)N1CCc2c(nn(Cc3c(F)cccc3F)c2Br)C1=O (single isomer, unassigned) [Compound Z24-2] | 29.7 | 348
3 |  | CC(C(F)F)N1CCc2c(nn(Cc3c(F)cccc3F)c2Cl)C1=O (stereo not shown) [Compound Z9, 3-chloro-2-(2,6-difluorobenzyl)-6-(1,1-difluoropropan-2-yl)-2,4,5,6-tetrahydro-7H-pyrazolo[3,4-c]pyridin-7-one] | 57.1 | 600

Reference: patent US20240294523A1, “HETEROCYCLIC LACTAM COMPOUND, AND PREPARATION METHOD THEREFOR AND PHARMACEUTICAL USE THEREOF” (Genfleet Therapeutics (Shanghai) Inc., priority 2021, published 2024)
